As a reminder, the solubility is how much of the substance goes into solution per volume.

The nature of this series: solubility of acetaminophen in recrystallisation solvent (50% water and 50% methanol). The class given is physicochemical. As to conditions: aqueous with cosolvent or surfactant or cyclodextrin; solvent mixture of 50% water and 50% methanol by volume, heated to near boiling. As to the method: Heat the reaction mixture at about 115° C. with stirring for about 10 minutes to complete the reaction. Once complete, cool the mixture thoroughly in an ice bath for 15-20 minutes and collect the crystals by vacuum filtration on a Hirsch funnel. To decolorize the crude product, dissolve 0.2 g of sodium dithionite (sodium hydrosulfite) in 1.5 mL of water in a 5-mL conical vial. Add the crude acetaminophen to the vial. Heat the mixture at about 100° C. for 15 minutes, with occasional stirring. Cool the mixture to precipitate the decolorized acetaminophen. To purify the decolorized product, dissolve the material in a solvent mixture composed of 50% water and 50% methanol by volume, heated to boiling. The solubility of acetaminophen in the near-boiling solvent is about 0.2 g/mL. Cool the solution to precipitate the acetaminophen.

Values after ≈ are worked out from the molar mass of the structure shown.

For `CC(=O)Nc1ccc(O)cc1` [acetaminophen, N-acetyl-p-aminophenol], the solubility is roughly 200 mg/mL (≈ 1320 mM).

For the origin of these results see US10286504B2, “Synthesis of paracetamol (acetaminophen) from biomass-derived p-hydroxybenzamide” (Wisconsin Alumni Research Foundation, priority 2017, dated 2019).
